Consider five sequences from US12440544B2, “Cross-reactive epitope for multiple sclerosis” (The Board of Trustees of the Leland Stanford Junior …, priority 2019, dated 2025).

Holding throughout (format): cell-based, human
Test [1] relates to Adeno-TCR1. Briefly: T cell stimulation of adeno-tetramer sorted CD4 TCR cell line, cross reactivity with MBP 85-99 peptide. Particulars: adeno specific TCR cell line stimulated with Adeno peptide and MBP. The source says: (§1) To detect/determine adeno specific T cells directly from MS patients (n=9) and healthy (n=9), we generated pMHC tetramers, enriched, and enumerated CD4's that are specific to the adeno peptide. We were able to detect adeno specific CD4 T cells, which were higher in number among MS patients compared to HC. We also single cell sorted these adeno specific CD4 T cells, sequenced their TCRs, and generated TCR cell lines (adeno specific TCRs).
(§2) TCR cell lines from adeno-tetramer sorted CD4 TCRs were tested for cross reactivity with MBP 85-99 peptide. We also tested MS-1 TCR for cross reactivity with MBP. Adeno specific TCRs were stimulated with Adeno peptide and MBP. TCR2/ms-1 TCR and some of the adeno-TCRs (Adeno-TCR1 and 9) cross react with MBP peptide. Serum from MS (n=28) and HC (n=10) was tested for adeno virus titers in the serum. A subset of MS sera had higher adeno virus compared to HC sera. CD3+ T cells from 8 MS and 5 HCs were sorted, and TCR and RNA-seq performed using 10× platform. Additionally, for 4 out of 8 MS patients, T cells from cerebrospinal fluid were sequenced. […]
(§3) T cell stimulation assays were performed as previously described. […] At the end of stimulation, cells were harvested, washed, and stained with TCRβ, human CD3, and CD69 and analyzed on LSR II (Becton Dickinson) for activation.

The subject of test [2] is Adeno-TCR9. The test is described as above. The following applies: adeno specific TCR cell line stimulated with Adeno peptide and MBP.
Text: as §1, §2, §3

Test [3] relates to MS-1 TCR cell line. Briefly: T cell stimulation assay (CD69), MS1-TCR cell line co-cultured with peptide-loaded T2-DR15 antigen presenting cells. The following applies: for self-peptide identified for TCR2/MS-1 TCR: predicted with positional mutation/refined substitution matrix data, used for MS-1 TCR stimulation. The source says:
We generated MS1-TCR cell line, co-cultured with T2-DR15 antigen presenting cell line loaded with yeast library generated peptides and were examined for activation. CD69 was used as a marker for T cell activation. […] We used yeast library enrichment data to predict actual peptides/antigens (self or non-self) for MS-1 CD4 TCRs.
TCRα, β constructs were cloned into a lentiviral construct. For TCR expression, alpha and beta TCR lentiviral constructs were transfected into 293× cells separately. The virus was harvested after 72 hr of transfection and transduced into Jurkat αβ^−/− or SKW αβ^−/− cells. SKW or Jurkat cells were enriched for highest expression of TCRαβ by using a Miltenyi anti-APC selection (Miltenyi 130-090-855).
T cell stimulation assays were performed as previously described. All the T cell peptide stimulation experiments were done in 96 well round bottom plates with a 200 μl total volume. T2, K562 cells or BMDCs were pulsed with 10-100 ug of the peptides for 45 minutes, washed once and plated (10,000 cells/well). Cell lines expressing TCRs (100, 000 cells/well) were co-cultured with APCs for 18 hr. At the end of stimulation, cells were harvested, washed, and stained with TCRβ, human CD3, and CD69 and analyzed on LSR II (Becton Dickinson) for activation.

Regarding ENPVVHFFKNIVTPR [MBP peptide], the “cross reactivity of Adeno-TCR1 with MBP peptide” value in test [1] is on record as “cross react”. In addition, in test [2], the “cross reactivity of Adeno-TCR9 with MBP peptide” value is reported as “cross react”. Moreover, the “cross reactivity of TCR2/MS-1 TCR with MBP peptide” value in test [3] (TCR cell line stimulated with Adeno peptide and MBP) is given as “cross react”. For ANYGKARSWYLK [SEQ ID NO:2], the “self-peptide identified for TCR2/MS-1 TCR” value (“self-peptide identified” for short) in test [3] is “identified for TCR2/MS-1 TCR”. In the case of ATFTSYRSWYLA [Adeno], the “stimulation of MS-1 TCR cell line (CD69 as marker for T cell activation)” value in test [3] (co-cultured with T2-DR15 antigen presenting cell line loaded with peptide) is listed as “stimulated MS-1 TCR cell line”. On to IDRHMYHSYLK [SEQ ID NO:3], for which, in test [3], the “self-peptide identified” value is given as “identified for TCR2/MS-1 TCR”.

With DKGQQYRNWFLK [SEQ ID NO:4], the “self-peptide identified” value in test [3] is “identified for TCR2/MS-1 TCR”.
